Measured values: patent US11267812B2 (Mirati Therapeutics, Inc., priority 2016, dated 2022)

tested on: Phospho-ERK in NCI-H358 cells expressing KRas G12C; experiment: Cellular inhibition of KRas G12C by Phospho-ERK measurement in NCI-H358 cells; format: cell-based; conditions: Homo sapiens; NCI-H358 cells, 3 hours compound treatment; read-out: IC50 (pERK(Thr202/Tyr204) normalized with GAPDH)
Procedure: The cellular inhibition of KRAs G12C by exemplary compounds of the present invention was determined by measuring the amount of a downstream marker of KRas activity, phosphorylated ERK (“Phospho-ERK”).
NCI-H358 cells (ATCC CRL-5807) express KRas G12C and were grown in RPMI medium supplemented with 10% fetal bovine serum, penicillin/streptomycin and 10 mM HEPES. Cells were plated in poly-D-Lysine coated 96-well plates at a concentration of 50,000 cells/well and allowed to attach for 8-12 hours. Diluted compounds were then added at a final concentration of 0.5% DMSO. After 3 hours, the medium was removed, 150 μL of 4% formaldehyde was added and the plates were incubated for 20 minutes. The plates were washed with PBS, and permeabilized using 150 μL of ice cold 100% methanol for 10 minutes. Non-specific antibody binding to the plates was blocked using 100 μL Licor Blocking Buffer (Li-Cor Biotechnology, Lincoln Nebr.) for 1 hour at room temperature. Positive control samples and samples lacking cells were parallel processed with test samples as standards.
The amount Phospho-ERK was determined using an antibody specific for the phosphorylated form of ERK and compared to the amount of GAPDH. Primary antibodies used for detection were added as follows: Phospho-ERK (Cell Signaling cs9101) diluted 1:500 and GAPDH (Millipore MAB374) diluted 1:5000 in Licor block+0.05% Tween 20. The plates were incubated for 2 hours at room temperature. The plates were washed with PBS+0.05% Tween 20.
Secondary antibodies used to visualize primary antibodies were added as follows: Anti-rabbit-680 diluted 1:1000 and Anti-mouse-800 diluted 1:1000 in Licor Block+0.050 Tween 20 and incubated for 1 hour at room temperature. The plates were washed with PBS+0.05% o Tween 20. A100 L aliquot of PBS was added to each well and the plates were read on a LICOR AERIUS plate reader.
The pERK(Thr202/Tyr204) signal was normalized with the GAPDH signal and percent of DMSO control values were calculated. IC50 values were generated using a 4 parameter fit of the dose response curve. Key: “A”≥0.001-≤1 μM; “B”[…] and ND=not determined.

Compound	IC50 [nM]
C=CC(=O)N1CCN(c2nc(OC[C@@H]3CN(C)CCN3)nc3c2CCN(c2cccc4ccccc24)C3)CC1CC#N (stereo partly drawn) [Example 223, 2-(1-acryloyl-4-(2-(((S)-4-methylpiperazin-2-yl)methoxy)-7-(naphthalen-1-yl)-5,6,7,8-tetrahydropyrido[3,4-d]pyrimidin-4-yl)piperazin-2-yl)acetonitrile]	1 to 1000
C=CC(=O)N1CCN(c2nc(OC[C@@H]3C[C@H](F)CN3C)nc3c2CCN(c2cccc4ccccc24)C3)CC1CC#N (stereo partly drawn) [Example 221, 2-(1-acryloyl-4-(2-(((2S,4S)-4-fluoro-1-methylpyrrolidin-2-yl)methoxy)-7-(naphthalen-1-yl)-5,6,7,8-tetrahydropyrido[3,4-d]pyrimidin-4-yl)piperazin-2-yl)acetonitrile]	1 to 1000
C=CC(=O)N1CCN(c2nc(OC[C@@H]3CCCN3C)nc3c2CCN(c2ccccc2OC(F)(F)F)C3)CC1CC#N (stereo partly drawn) [Example 211, 2-(1-acryloyl-4-(2-(((S)-1-methylpyrrolidin-2-yl)methoxy)-7-(2-(trifluoromethoxy)phenyl)-5,6,7,8-tetrahydropyrido[3,4-d]pyrimidin-4-yl)piperazin-2-yl)acetonitrile]	1 to 1000
C=CC(=O)N1CCN(c2nc(O[C@H](C)CN(C)C)nc3c2CCN(c2cc(O)cc4ccccc24)C3)CC1 [Example 19, (R)-1-(4-(2-((1-(dimethylamino)propan-2-yl)oxy)-7-(3-hydroxynaphthalen-1-yl)-5,6,7,8-tetrahydropyrido[3,4-d]pyrimidin-4-yl)piperazin-1-yl)prop-2-en-1-one]	1 to 1000
C=CC(=O)N1CCN(c2nc(OC[C@@H]3CCCN3C)nc3c2CCN(c2ccccc2F)C3)CC1CC#N (stereo partly drawn) [Example 227, 2-(1-acryloyl-4-(7-(2-fluorophenyl)-2-(((S)-1-methylpyrrolidin-2-yl)methoxy)-5,6,7,8-tetrahydropyrido[3,4-d]pyrimidin-4-yl)piperazin-2-yl)acetonitrile]	1 to 1000
C=CC(=O)N1CCN(c2nc(OC[C@@H]3CCCN3C)nc3c2CCN(c2cccnc2C(F)(F)F)C3)CC1CC#N (stereo partly drawn) [Example 226, 2-(1-acryloyl-4-(2-(((S)-1-methylpyrrolidin-2-yl)methoxy)-7-(2-(trifluoromethyl)pyridin-3-yl)-5,6,7,8-tetrahydropyrido[3,4-d]pyrimidin-4-yl)piperazin-2-yl)acetonitrile]	1 to 1000
C=CC(=O)N1CCN(c2nc(OCCCN3CCOCC3)nc3c2CCN(c2cc(O)ccc2OC(F)(F)F)C3)CC1 [Example 90, 1-(4-(7-(5-hydroxy-2-(trifluoromethoxy)phenyl)-2-(3-morpholinopropoxy)-5,6,7,8-tetrahydropyrido[3,4-d]pyrimidin-4-yl)piperazin-1-yl)prop-2-en-1-one]	1 to 1000
C=CC(=O)N1CCN(c2nc(OC[C@@H]3CCCN3C)nc3c2CCN(c2ccccc2Cl)C3)CC1CC#N (stereo partly drawn) [Example 229, 2-(1-acryloyl-4-(7-(2-chlorophenyl)-2-(((S)-1-methylpyrrolidin-2-yl)methoxy)-5,6,7,8-tetrahydropyrido[3,4-d]pyrimidin-4-yl)piperazin-2-yl)acetonitrile]	1 to 1000
C=CC(=O)N1CCN(c2nc(OC[C@H]3CCCN3C)nc3c2CCN(c2cc(O)cc4ccccc24)C3)[C@@H](C)C1 [Example 203, 1-((S)-4-(7-(3-hydroxynaphthalen-1-yl)-2-(((R)-1-methylpyrrolidin-2-yl)methoxy)-5,6,7,8-tetrahydropyrido[3,4-d]pyrimidin-4-yl)-3-methylpiperazin-1-yl)prop-2-en-1-one]	1 to 1000
C=CC(=O)N1CCN(c2nc(OC[C@H]3CCCN3C)nc3c2CCN(c2cc(O)cc4ccccc24)C3)CC1CC#N (stereo partly drawn) [Example 178, 2-[4-[7-(3-hydroxy-1-naphthyl)-2-[[(2R)-1-methylpyrrolidin-2-yl]methoxy]-6,8-dihydro-5H-pyrido[3,4-d]pyrimidin-4-yl]-1-prop-2-enoyl-piperazin-2-yl]acetonitrile]	1 to 1000
C=CC(=O)N1CCN(c2nc(OCCCN3CCCCC3)nc3c2CCN(c2cc(O)cc4ccccc24)C3)CC1 [Example 38, 1-(4-(7-(3-hydroxynaphthalen-1-yl)-2-(3-(piperidin-1-yl)propoxy)-5,6,7,8-tetrahydropyrido[3,4-d]pyrimidin-4-yl)piperazin-1-yl)prop-2-en-1-one]	1 to 1000
C=CC(=O)N1CCN(c2nc(OC[C@@H]3C[C@H](OC)CN3C)nc3c2CCN(c2cccc4ccccc24)C3)CC1CC#N (stereo partly drawn) [Example 222, 2-(1-acryloyl-4-(2-(((2S,4S)-4-methoxy-1-methylpyrrolidin-2-yl)methoxy)-7-(naphthalen-1-yl)-5,6,7,8-tetrahydropyrido[3,4-d]pyrimidin-4-yl)piperazin-2-yl)acetonitrile]	1 to 1000
C=CC(=O)N1CCN(c2nc(OCC3CCN(C4CC4)C3)nc3c2CCN(c2cc(O)cc4ccccc24)C3)CC1 (stereo not shown) [Example 190, 1-(4-(2-((1-cyclopropylpyrrolidin-3-yl)methoxy)-7-(3-hydroxynaphthalen-1-yl)-5,6,7,8-tetrahydropyrido[3,4-d]pyrimidin-4-yl)piperazin-1-yl)prop-2-en-1-one]	1 to 1000
C=CC(=O)N1CCN(c2nc(O[C@H](C)CN(C)C)nc3c2CCN(c2cc(O)cc4ccccc24)C3)[C@@H](C)C1 [Example 115, 1-((S)-4-(2-(((R)-1-(dimethylamino)propan-2-yl)oxy)-7-(3-hydroxynaphthalen-1-yl)-5,6,7,8-tetrahydropyrido[3,4-d]pyrimidin-4-yl)-3-methylpiperazin-1-yl)prop-2-en-1-one]	1 to 1000
C=CC(=O)N1CCN(c2nc(OCCN3CCCCC3)nc3c2CCN(c2cc(O)cc4ccccc24)C3)CC1 [Example 52, 1-[4-[7-(3-hydroxy-1-naphthyl)-2-[2-(1-piperidyl)ethoxy]-6,8-dihydro-5H-pyrido[3,4-d]pyrimidin-4-yl]piperazin-1-yl]prop-2-en-1-one]	1 to 1000
C=CC(=O)N1CCN(c2nc(OC[C@@H]3CCCN3C)nc3c2CCN(c2c(C(F)(F)F)ccc4[nH]ncc24)C3)CC1 [Example 156, (S)-1-(4-(2-((1-methylpyrrolidin-2-yl)methoxy)-7-(5-(trifluoromethyl)-1H-indazol-4-yl)-5,6,7,8-tetrahydropyrido[3,4-d]pyrimidin-4-yl)piperazin-1-yl)prop-2-en-1-one]	1 to 1000
C=CC(=O)N1CCN(c2nc(O[C@H](C)CN(C)C)nc3c2CCN(c2cc(O)cc4ccccc24)C3)CC1CC#N (stereo partly drawn) [Example 150, 2-(1-acryloyl-4-(2-(((R)-1-(dimethylamino)propan-2-yl)oxy)-7-(3-hydroxynaphthalen-1-yl)-5,6,7,8-tetrahydropyrido[3,4-d]pyrimidin-4-yl)piperazin-2-yl)acetonitrile]	1 to 1000
C=CC(=O)N1CCN(c2nc(OC[C@@H]3CCCN3C)nc3c2CCN(c2cccc(C)c2C)C3)CC1CC#N (stereo partly drawn) [Example 228, 2-(1-acryloyl-4-(7-(2,3-dimethylphenyl)-2-(((S)-1-methylpyrrolidin-2-yl)methoxy)-5,6,7,8-tetrahydropyrido[3,4-d]pyrimidin-4-yl)piperazin-2-yl)acetonitrile]	1 to 1000
C=CC(=O)N1CCN(c2nc(OC[C@@H]3CCCN3C)nc3c2CCN(c2cccc(Cl)c2C(F)(F)F)C3)CC1CC#N (stereo partly drawn) [Example 277, 2-(1-acryloyl-4-(7-(3-chloro-2-(trifluoromethyl)phenyl)-2-(((S)-1-methylpyrrolidin-2-yl)methoxy)-5,6,7,8-tetrahydropyrido[3,4-d]pyrimidin-4-yl)piperazin-2-yl)acetonitrile]	1 to 1000
C=CC(=O)N1CCN(c2nc(OC[C@H]3CN(C)CCN3)nc3c2CCN(c2cccc4ccccc24)C3)CC1CC#N (stereo partly drawn) [Example 224, 2-(1-acryloyl-4-(2-(((R)-4-methylpiperazin-2-yl)methoxy)-7-(naphthalen-1-yl)-5,6,7,8-tetrahydropyrido[3,4-d]pyrimidin-4-yl)piperazin-2-yl)acetonitrile]	1 to 1000
C=CC(=O)N1CCN(c2nc(OCCCN3CCCOCC3)nc3c2CCN(c2cc(O)cc4ccccc24)C3)CC1 [Example 101, 1-(4-(2-(3-(1,4-oxazepan-4-yl)propoxy)-7-(3-hydroxynaphthalen-1-yl)-5,6,7,8-tetrahydropyrido[3,4-d]pyrimidin-4-yl)piperazin-1-yl)prop-2-en-1-one]	1 to 1000
C=CC(=O)N1CCN(c2nc(OC[C@@H]3CCCN3CCOC)nc3c2CCN(c2cccc4ccccc24)C3)CC1CC#N (stereo partly drawn) [Example 266, 2-(1-acryloyl-4-(2-(((S)-1-(2-methoxyethyl)pyrrolidin-2-yl)methoxy)-7-(naphthalen-1-yl)-5,6,7,8-tetrahydropyrido[3,4-d]pyrimidin-4-yl)piperazin-2-yl)acetonitrile]	1 to 1000
